Assay results published in ChEMBL document CHEMBL3865846, “Synthesis and biological evaluation of ricinoleic acid-based lipoamino acid derivatives” (Bioorg Med Chem Lett, 2016).
In brackets after ≈: the same amount, converted by molar mass.

Assays:
Type in all cases: functional
[1] = system: Candida albicans; assay: Antimicrobial activity against Candida albicans MTCC1637 measured after 24 hrs by well-diffusion method; conditions: MTCC1637, 24 h
[2] = system: Pichia sporocuriosa; assay: Antimicrobial activity against Issatchenkia hanoiensis MTCC4755 measured after 24 hrs by well-diffusion method; conditions: MTCC4755, 24 h
[3] = system: Nakaseomyces glabratus; assay: Antimicrobial activity against Candida glabrata MTCC3019 measured after 24 hrs by well-diffusion method; conditions: MTCC3019, 24 h
[4] = system: Candida albicans; assay: Antimicrobial activity against Candida albicans MTCC3018 measured after 24 hrs by well-diffusion method; conditions: MTCC3018, 24 h
[5] = system: Staphylococcus aureus; assay: Anti-biofilm activity against Staphylococcus aureus MLS16 MTCC2940 measured after 24 hrs by crystal violet-staining based method; conditions: MLS16 MTCC2940, 24 h
[6] = system: Micrococcus luteus; assay: Bactericidal activity against Micrococcus luteus MTCC2470 measured after 24 hrs; conditions: MTCC2470, 24 h
[7] = system: Candida albicans; assay: Antimicrobial activity against Candida albicans MTCC227 measured after 24 hrs by well-diffusion method; conditions: MTCC227, 24 h
[8] = system: Staphylococcus aureus; assay: Bactericidal activity against Staphylococcus aureus MTCC96 measured after 24 hrs; conditions: MTCC96, 24 h
[9] = system: Candida albicans; assay: Antimicrobial activity against Candida albicans MTCC7315 measured after 24 hrs by well-diffusion method; conditions: MTCC7315, 24 h
[10] = system: Bacillus subtilis; assay: Anti-biofilm activity against Bacillus subtilis MTCC121 measured after 24 hrs by crystal violet-staining based method; conditions: MTCC121, 24 h
[11] = system: Bacillus subtilis; assay: Bactericidal activity against Bacillus subtilis MTCC121 measured after 24 hrs; conditions: MTCC121, 24 h
[12] = system: Pichia kudriavzevii; assay: Fungicidal activity against Candida krusei MTCC3020 measured after 24 hrs; conditions: MTCC3020, 24 h
[13] = system: Candida albicans; assay: Antimicrobial activity against Candida albicans MTCC4748 measured after 24 hrs by well-diffusion method; conditions: MTCC4748, 24 h
[14] = system: Candida albicans; assay: Fungicidal activity against Candida albicans MTCC183 measured after 24 hrs; conditions: MTCC183, 24 h
[15] = system: Candida albicans; assay: Antimicrobial activity against Candida albicans MTCC183 measured after 24 hrs by well-diffusion method; conditions: MTCC183, 24 h
[16] = system: Candida albicans; assay: Antimicrobial activity against Candida albicans MTCC3958 measured after 24 hrs by well-diffusion method; conditions: MTCC3958, 24 h
[17] = system: Staphylococcus aureus; assay: Anti-biofilm activity against Staphylococcus aureus MTCC96 measured after 24 hrs by crystal violet-staining based method; conditions: MTCC96, 24 h
[18] = system: Staphylococcus aureus; assay: Bactericidal activity against Staphylococcus aureus MLS16 MTCC2940 measured after 24 hrs; conditions: MLS16 MTCC2940, 24 h
[19] = system: Bacillus subtilis; assay: Antimicrobial activity against Bacillus subtilis MTCC121 measured after 24 hrs by well-diffusion method; conditions: MTCC121, 24 h
[20] = system: Candida albicans; assay: Fungicidal activity against Candida albicans MTCC854 measured after 24 hrs; conditions: MTCC854, 24 h
[21] = system: Pichia kudriavzevii; assay: Anti-biofilm activity against Candida krusei MTCC3020 measured after 24 hrs by crystal violet-staining based method; conditions: MTCC3020, 24 h
[22] = system: Candida parapsilosis; assay: Fungicidal activity against Candida parapsilosis MTCC1744 measured after 24 hrs; conditions: Lodderomyces parapsilosis, MTCC1744, 24 h
[23] = system: Pichia kudriavzevii; assay: Antimicrobial activity against Candida krusei MTCC3020 measured after 24 hrs by well-diffusion method; conditions: MTCC3020, 24 h
[24] = system: Candida albicans; assay: Fungicidal activity against Candida albicans MTCC3018 measured after 24 hrs; conditions: MTCC3018, 24 h
[25] = system: Candida albicans; assay: Fungicidal activity against Candida albicans MTCC4748 measured after 24 hrs; conditions: MTCC4748, 24 h
[26] = system: Staphylococcus aureus; assay: Antimicrobial activity against Staphylococcus aureus MLS16 MTCC2940 measured after 24 hrs by well-diffusion method; conditions: MLS16 MTCC2940, 24 h
[27] = system: Candida albicans; assay: Antimicrobial activity against Candida albicans MTCC854 measured after 24 hrs by well-diffusion method; conditions: MTCC854, 24 h
[28] = system: Nakaseomyces glabratus; assay: Fungicidal activity against Candida glabrata MTCC3019 measured after 24 hrs; conditions: MTCC3019, 24 h
[29] = system: [Candida] aaseri; assay: Fungicidal activity against Candida aaseri MTCC1962 measured after 24 hrs; conditions: Yamadazyma aaseri, MTCC1962, 24 h
[30] = system: Pseudomonas aeruginosa; assay: Antimicrobial activity against Pseudomonas aeruginosa MTCCM2453 measured after 24 hrs by well-diffusion method; conditions: MTCCM2453, 24 h
[31] = system: Micrococcus luteus; assay: Antimicrobial activity against Micrococcus luteus MTCC2470 measured after 24 hrs by well-diffusion method; conditions: MTCC2470, 24 h
[32] = system: Raoultella planticola; assay: Antimicrobial activity against Klebsiella planticola MTCC530 measured after 24 hrs by well-diffusion method; conditions: MTCC530, 24 h
[33] = system: Staphylococcus aureus; assay: Antimicrobial activity against Staphylococcus aureus MTCC96 measured after 24 hrs by well-diffusion method; conditions: MTCC96, 24 h
[34] = system: Candida parapsilosis; assay: Antimicrobial activity against Candida parapsilosis MTCC1744 measured after 24 hrs by well-diffusion method; conditions: Lodderomyces parapsilosis, MTCC1744, 24 h
[35] = system: Candida albicans; assay: Fungicidal activity against Candida albicans MTCC227 measured after 24 hrs; conditions: MTCC227, 24 h
[36] = system: Candida albicans; assay: Fungicidal activity against Candida albicans MTCC1637 measured after 24 hrs; conditions: MTCC1637, 24 h
[37] = system: Micrococcus luteus; assay: Anti-biofilm activity against Micrococcus luteus MTCC2470 measured after 24 hrs by crystal violet-staining based method; conditions: MTCC2470, 24 h
[38] = system: Candida albicans; assay: Antimicrobial activity against Candida albicans MTCC3017 measured after 24 hrs by well-diffusion method; conditions: MTCC3017, 24 h
[39] = system: Candida albicans; assay: Fungicidal activity against Candida albicans MTCC7315 measured after 24 hrs; conditions: MTCC7315, 24 h
[40] = system: Escherichia coli; assay: Antimicrobial activity against Escherichia coli MTCC739 measured after 24 hrs by well-diffusion method; conditions: MTCC739, 24 h
[41] = system: Candida albicans; assay: Fungicidal activity against Candida albicans MTCC3958 measured after 24 hrs; conditions: MTCC3958, 24 h

Q: For `CCCCCCC(C/C=C\CCCCCCCC(=O)OC)NC(=O)CN` (stereo unspecified), which MIC [1] is on record?
A: Its MIC is 7.8 µg/mL (≈ 21.2 µM).

Q: And the MIC [2]?
A: The MIC was 7.8 µg/mL (≈ 21.2 µM).

Q: And the MIC [3]?
A: The MIC was 7.8 µg/mL (≈ 21.2 µM).

Q: What about the MIC [4] of the same compound?
A: Its MIC is 7.8 µg/mL (≈ 21.2 µM).

Q: What about the IC50 [5] of the same compound?
A: Its IC50 is 4.1 µg/mL (≈ 11.1 µM).

Q: And the MBC [6]?
A: The MBC was 7.8 µg/mL (≈ 21.2 µM).

Q: What about the MIC [7] of the same compound?
A: The MIC was 7.8 µg/mL (≈ 21.2 µM).

Q: What about the MBC [8] of the same compound?
A: Its MBC is 7.8 µg/mL (≈ 21.2 µM).

Q: And the MIC [9]?
A: The MIC was 7.8 µg/mL (≈ 21.2 µM).

Q: And the IC50 [10]?
A: The IC50 was 2.9 µg/mL (≈ 7.87 µM).

Q: And the MBC [11]?
A: Its MBC is 7.8 µg/mL (≈ 21.2 µM).

Q: And the MFC [12]?
A: The MFC was 7.8 µg/mL (≈ 21.2 µM).

Q: And the MIC [13]?
A: The MIC was 7.8 µg/mL (≈ 21.2 µM).

Q: And the MFC [14]?
A: The MFC was 7.8 to 31.2 µg/mL (≈ 21.2 to 84.7 µM).

Q: What about the MIC [15] of the same compound?
A: The MIC was 7.8 µg/mL (≈ 21.2 µM).

Q: And the MIC [16]?
A: Its MIC is 7.8 µg/mL (≈ 21.2 µM).

Q: What about the IC50 [17] of the same compound?
A: The IC50 was 2.1 µg/mL (≈ 5.7 µM).

Q: What about the MBC [18] of the same compound?
A: Its MBC is 7.8 µg/mL (≈ 21.2 µM).

Q: And the MIC [19]?
A: Its MIC is 7.8 µg/mL (≈ 21.2 µM).

Q: What about the MFC [20] of the same compound?
A: Its MFC is 7.8 to 31.2 µg/mL (≈ 21.2 to 84.7 µM).

Q: And the IC50 [21]?
A: The IC50 was 4.1 µg/mL (≈ 11.1 µM).

Q: What about the MFC [22] of the same compound?
A: The MFC was 7.8 to 31.2 µg/mL (≈ 21.2 to 84.7 µM).

Q: What about the MIC [23] of the same compound?
A: The MIC was 7.8 µg/mL (≈ 21.2 µM).

Q: What about the MFC [24] of the same compound?
A: The MFC was 7.8 to 31.2 µg/mL (≈ 21.2 to 84.7 µM).

Q: And the MFC [25]?
A: Its MFC is 7.8 to 31.2 µg/mL (≈ 21.2 to 84.7 µM).

Q: What about the MIC [26] of the same compound?
A: Its MIC is 7.8 µg/mL (≈ 21.2 µM).

Q: And the MIC [27]?
A: The MIC was 7.8 µg/mL (≈ 21.2 µM).

Q: What about the MFC [28] of the same compound?
A: The MFC was 7.8 to 31.2 µg/mL (≈ 21.2 to 84.7 µM).

Q: What about the MFC [29] of the same compound?
A: Its MFC is 7.8 to 31.2 µg/mL (≈ 21.2 to 84.7 µM).

Q: And the MIC [30]?
A: The MIC was > 125 µg/mL.

Q: And the MIC [31]?
A: Its MIC is 3.9 µg/mL (≈ 10.6 µM).

Q: What about the MIC [32] of the same compound?
A: The MIC was > 125 µg/mL.

Q: What about the MIC [33] of the same compound?
A: Its MIC is 3.9 µg/mL (≈ 10.6 µM).

Q: And the MIC [34]?
A: The MIC was 7.8 µg/mL (≈ 21.2 µM).

Q: And the MFC [35]?
A: The MFC was 7.8 to 31.2 µg/mL (≈ 21.2 to 84.7 µM).

Q: What about the MFC [36] of the same compound?
A: The MFC was 7.8 to 31.2 µg/mL (≈ 21.2 to 84.7 µM).

Q: And the IC50 [37]?
A: The IC50 was 1.9 µg/mL (≈ 5.16 µM).

Q: And the MIC [38]?
A: The MIC was 7.8 µg/mL (≈ 21.2 µM).

Q: And the MFC [39]?
A: Its MFC is 7.8 to 31.2 µg/mL (≈ 21.2 to 84.7 µM).

Q: And the MIC [40]?
A: Its MIC is > 125 µg/mL.

Q: What about the MFC [41] of the same compound?
A: The MFC was 7.8 to 31.2 µg/mL (≈ 21.2 to 84.7 µM).
